# Legend:
# RAW macrophages = experiment: Phototoxicity in RAW macrophages, irradiation at 652 nm, MTT test; assay type: cell-based; settings: RAW cells, 10 μM, 20 mW/cm^2, MTT 24 h after irradiation
# Method: RAW cells were grown in 96-well cell culture plates (Corning, N.Y.) until 75% confluent in DMEM medium containing 10% FCS. The culture media were replaced with fresh medium containing the Ru, Os or Rh-porphyrin analogs at 10 μM (minimal dark cytotoxicity) and the cells were exposed overnight to the compounds. Then, the media were replaced with DMEM without phenol red containing 10% FCS and cells were irradiated at 652 nm using a diode laser (Applied Optronics, South Plainfield, N.J.) coupled to a frontal diffuser (Medlight SA, Ecublens, Switzerland), at an irradiance of 20 mW/cm^2. Experiments were performed in triplicate wells. Cell viability was evaluated 24 h later using the MTT test. Briefly, 3-(4,5-dimethyl-2-thiazoyl)-2,5-diphenyltetrazolium bromide (MTT, Merck) was added at 250 μg/mL and incubation was continued for 2 h, then the cell culture supernatants were removed. The cell layers were dissolved in iPrOH/0.04N HCl and the absorbance measured at 540 nm in a multiwell-plate reader (iEMS Reader MF, Labsystems, Bioconcept, Switzerland) and compared to the values of control cells incubated with the nanoparticles but without laser irradiation.
# [1] = Fluorescence quantum yield of photosensitizers; assay type: physicochemical; settings: in MeOH at 648 nm after 410 nm excitation
# Method: The UV-visible absorption spectra were recorded on an Uvikon 930 spectrophotometer and fluorescence spectra on a Perkin-Elmer LS50 spectrofluorometer.
Compound,photosensitivity (photosensitizer ranking) (RAW macrophages),fluorescence quantum yield φf [1] [%]
[Ru4(η^6-C6H5CH3)4(TPP)Cl8] [Compound 2],best photosensitizers amongst the Ru-porphyrin compounds,7.4
[Ir4(η^5-Cp*)4(TPP)Cl8] [Compound 8],,4.5
"[Ru4(η^6-1,4-C6H4(COOEt)2)4(TPP)Cl8] [Compound 5]",,7.2
[Ru4(η^6-p-Pr^iC6H4Me)4(TPP)Cl8] [Compound 3],,7.9
[Rh4(η^5-Cp*)4(TPP)Cl8] [Compound 7],,7.9
[OS4(η^6-p-Pr^iC6H4Me)4(TPP)Cl8] [Compound 6],,7.0
[Ru4(η^6-C6Me6)4(TPP)Cl8] [Compound 4],,7.3
"C1=Cc2nc1c(-c1ccncc1)c1ccc([nH]1)c(-c1ccncc1)c1nc(c(-c3ccncc3)c3ccc([nH]3)c2-c2ccncc2)C=C1 [TPP, 5,10,15,20-tetra(4-pyridyl)porphyrin, reference compound]",,10.4
[Ru4(η^6-C6H6)4(TPP)Cl8] [Compound 1],best photosensitizers amongst the Ru-porphyrin compounds,6.1

# Reference: patent US20100173885A1, “ORGANOMETEALLIC COMPOUNDS” (priority 2007, published 2010)
